# Data: ChEMBL document CHEMBL1649565, “Besifloxacin, a novel fluoroquinolone, has broad-spectrum in vitro activity against aerobic and anaerobic bacteria” (Antimicrob Agents Chemother, 2009)
# Calls of active or inactive are those of the source. The rule behind the calls is not given here.
# Tests used:
# Legionella pneumophila = test: Antibacterial activity against Legionella pneumophila by CLSI M7-A7 method; assay type: functional
# Staphylococcus aureus [1] = test: Antibacterial activity against ciprofloxacin-susceptible and methicillin-resistant Staphylococcus aureus assessed as percent susceptible isolates by CLSI M100-S18 method; assay type: functional
# Morganella morganii [2] = test: Antibacterial activity against Morganella morganii by CLSI M7-A7 method; assay type: functional
# [3] = tested on: Staphylococcus saprophyticus; test: Antibacterial activity against Staphylococcus saprophyticus by CLSI M100-S18 method; assay type: functional
# Staphylococcus warneri [4] = test: Antibacterial activity against Staphylococcus warneri by CLSI M100-S18 method; assay type: functional
# Streptococcus pneumoniae [5] = test: Antibacterial activity against non-levofloxacin susceptible Streptococcus pneumoniae assessed as percent susceptible isolates by CLSI M100-S18 method; assay type: functional
# Streptococcus sanguinis = test: Antibacterial activity against Streptococcus sanguinis by CLSI M100-S18 method; assay type: functional
# Haemophilus influenzae [6] = test: Antibacterial activity against ciprofloxacin-susceptible Haemophilus influenzae assessed as percent susceptible isolates by CLSI M7-A7 method; assay type: functional
# [7] = tested on: Staphylococcus epidermidis
# Streptococcus mitis = test: Antibacterial activity against Streptococcus mitis by CLSI M100-S18 method; assay type: functional
# [8] = tested on: Staphylococcus epidermidis; test: Antibacterial activity against ciprofloxacin-susceptible and methicillin-resistant Staphylococcus epidermidis assessed as percent susceptible isolates by CLSI M100-S18 method; assay type: functional
# Neisseria meningitidis [9] = test: Antibacterial activity against Neisseria meningitidis by CLSI M7-A7 method; assay type: functional
# Listeria monocytogenes = test: Antibacterial activity against Listeria monocytogenes by CLSI M100-S18 method; assay type: functional
# Staphylococcus aureus [10] = test: Antibacterial activity against ciprofloxacin-susceptible and methicillin-resistant Staphylococcus aureus by CLSI M100-S18 method; assay type: functional
# [11] = tested on: Staphylococcus epidermidis; test: Antibacterial activity against non-ciprofloxacin-susceptible and methicillin-susceptible Staphylococcus epidermidis assessed as percent susceptible isolates by CLSI M100-S18 method; assay type: functional
# Citrobacter koseri [12] = test: Antibacterial activity against Citrobacter koseri by CLSI M7-A7 method; assay type: functional
# [13] = tested on: Staphylococcus saprophyticus; test: Antibacterial activity against Staphylococcus saprophyticus assessed as percent susceptible isolates by CLSI M100-S18 method; assay type: functional
# [14] = tested on: Staphylococcus lugdunensis; test: Antibacterial activity against Staphylococcus lugdunensis assessed as percent susceptible isolates by CLSI M100-S18 method; assay type: functional
# Staphylococcus hominis [15] = test: Antibacterial activity against Staphylococcus hominis assessed as percent susceptible isolates by CLSI M100-S18 method; assay type: functional
# Streptococcus equinus = test: Antibacterial activity against Streptococcus bovis by CLSI M100-S18 method; assay type: functional
# Haemophilus influenzae [16] = test: Antibacterial activity against non-ciprofloxacin-susceptible Haemophilus influenzae by CLSI M7-A7 method; assay type: functional
# Streptococcus oralis = test: Antibacterial activity against Streptococcus oralis by CLSI M100-S18 method; assay type: functional
# Enterococcus faecalis = test: Antibacterial activity against vancomycin- resistant Enterococcus faecalis by CLSI M100-S18 method; assay type: functional
# Morganella morganii [17] = test: Antibacterial activity against Morganella morganii assessed as percent susceptible isolates by CLSI M7-A7 method; assay type: functional
# Staphylococcus warneri [18] = test: Antibacterial activity against Staphylococcus warneri assessed as percent susceptible isolates by CLSI M100-S18 method; assay type: functional
# Haemophilus influenzae [19] = test: Antibacterial activity against non-ciprofloxacin-susceptible Haemophilus influenzae assessed as percent susceptible isolates by CLSI M7-A7 method; assay type: functional
# Staphylococcus hominis [20] = test: Antibacterial activity against Staphylococcus hominis by CLSI M100-S18 method; assay type: functional
# Enterococcus faecium = test: Antibacterial activity against vancomycin- resistant Enterococcus faecium by CLSI M100-S18 method; assay type: functional
# [21] = Antibacterial activity against Lancefield Streptococcus sp. 'group C' by CLSI M100-S18 method; assay type: functional
# Moraxella catarrhalis [22] = test: Antibacterial activity against Moraxella catarrhalis by CLSI M7-A7 method; assay type: functional
# Staphylococcus aureus [23] = test: Antibacterial activity against non-ciprofloxacin-susceptible and methicillin-susceptible Staphylococcus aureus assessed as percent susceptible isolates by CLSI M100-S18 method; assay type: functional
# [24] = tested on: Staphylococcus epidermidis; test: Antibacterial activity against ciprofloxacin-susceptible and methicillin-resistant Staphylococcus epidermidis by CLSI M100-S18 method; assay type: functional
# Streptococcus sp. = test: Antibacterial activity against Lancefield Streptococcus sp. group F by CLSI M100-S18 method; assay type: functional
# Moraxella catarrhalis [25] = test: Antibacterial activity against Moraxella catarrhalis assessed as percent susceptible isolates by CLSI M7-A7 method; assay type: functional
# Streptococcus pneumoniae [26] = test: Antibacterial activity against levofloxacin susceptible Streptococcus pneumoniae assessed as percent susceptible isolates by CLSI M100-S18 method; assay type: functional
# Streptococcus pneumoniae [27] = test: Antibacterial activity against levofloxacin-susceptible Streptococcus pneumoniae by CLSI M100-S18 method; assay type: functional
# Streptococcus agalactiae = test: Antibacterial activity against Streptococcus agalactiae by CLSI M100-S18 method; assay type: functional
# Haemophilus influenzae [28] = test: Antibacterial activity against ciprofloxacin-susceptible Haemophilus influenzae by CLSI M7-A7 method; assay type: functional
# [29] = tested on: Staphylococcus epidermidis; remark: listed apart in the source
# Streptococcus pneumoniae [30] = test: Antibacterial activity against non-levofloxacin susceptible Streptococcus pneumoniae by CLSI M100-S18 method; assay type: functional
# Klebsiella oxytoca [31] = test: Antibacterial activity against Klebsiella oxytoca by CLSI M7-A7 method; assay type: functional
# [32] = Antibacterial activity against Lancefield Streptococcus sp. 'group G' by CLSI M100-S18 method; assay type: functional
# Streptococcus salivarius = test: Antibacterial activity against Streptococcus salivarius by CLSI M100-S18 method; assay type: functional
# [33] = tested on: Streptococcus intermedius; test: Antibacterial activity against Streptococcus intermedius by CLSI M100-S18 method; assay type: functional
# [34] = tested on: Staphylococcus haemolyticus; test: Antibacterial activity against Staphylococcus haemolyticus by CLSI M100-S18 method; assay type: functional
# Streptococcus pyogenes = test: Antibacterial activity against Streptococcus pyogenes by CLSI M100-S18 method; assay type: functional
# [35] = tested on: Staphylococcus haemolyticus; test: Antibacterial activity against Staphylococcus haemolyticus assessed as percent susceptible isolates by CLSI M100-S18 method; assay type: functional
# Streptococcus anginosus = test: Antibacterial activity against Streptococcus anginosus by CLSI M100-S18 method; assay type: functional
# Neisseria meningitidis [36] = test: Antibacterial activity against Neisseria meningitidis assessed as percent susceptible isolates by CLSI M7-A7 method; assay type: functional
# Klebsiella oxytoca [37] = test: Antibacterial activity against Klebsiella oxytoca assessed as percent susceptible isolates by CLSI M7-A7 method; assay type: functional
# [38] = tested on: Streptococcus constellatus; test: Antibacterial activity against Streptococcus constellatus by CLSI M100-S18 method; assay type: functional
# Citrobacter koseri [39] = test: Antibacterial activity against Citrobacter koseri assessed as percent susceptible isolates by CLSI M7-A7 method; assay type: functional
# Staphylococcus aureus [40] = test: Antibacterial activity against non-ciprofloxacin-susceptible and methicillin-susceptible Staphylococcus aureus by CLSI M100-S18 method; assay type: functional
# [41] = tested on: Staphylococcus lugdunensis; test: Antibacterial activity against Staphylococcus lugdunensis by CLSI M100-S18 method; assay type: functional
# [42] = tested on: Staphylococcus epidermidis; test: Antibacterial activity against non-ciprofloxacin-susceptible and methicillin-susceptible Staphylococcus epidermidis by CLSI M100-S18 method; assay type: functional
structure (smiles),measurement,setting,value
CC[C@H]1OC(=O)[C@H](C)[C@@H](O[C@H]2C[C@@](C)(OC)[C@@H](O)[C@H](C)O2)[C@H](C)[C@@H](O[C@@H]2O[C@H](C)C[C@H](N(C)C)[C@H]2O)[C@](C)(O)C[C@@H](C)CN(C)[C@H](C)[C@@H](O)[C@]1(C)O [AZITHROMYCIN],MIC50,Legionella pneumophila,0.03 µg/mL
same,MIC90,Legionella pneumophila,0.03 µg/mL
same,Activity,Staphylococcus aureus [1],94.7%
same,MIC50,Morganella morganii [2],> 8 µg/mL
same,MIC90,Morganella morganii [2],> 8 µg/mL
same,MIC50,[3],1 µg/mL
same,MIC90,[3],> 8 µg/mL
same,MIC50,Staphylococcus warneri [4],> 8 µg/mL
same,MIC90,Staphylococcus warneri [4],> 8 µg/mL
same,Activity,Streptococcus pneumoniae [5],36.5%
same,MIC50,Streptococcus sanguinis,1 µg/mL
same,MIC90,Streptococcus sanguinis,1 µg/mL
same,Activity,Haemophilus influenzae [6],100%
same,MIC90,[7],inactive
same,MIC50,Streptococcus mitis,1 µg/mL
same,MIC90,Streptococcus mitis,1 µg/mL
same,Activity,[8],100%
same,MIC50,Neisseria meningitidis [9],0.06 µg/mL
same,MIC90,Neisseria meningitidis [9],0.06 µg/mL
same,MIC50,Listeria monocytogenes,0.5 µg/mL
same,MIC90,Listeria monocytogenes,1 µg/mL
same,MIC50,Staphylococcus aureus [10],1 µg/mL
same,Activity,[11],0%
same,MIC50,Citrobacter koseri [12],8 µg/mL
same,MIC90,Citrobacter koseri [12],> 8 µg/mL
same,Activity,[13],100%
same,Activity,[14],66.7%
same,Activity,Staphylococcus hominis [15],30%
same,MIC50,Streptococcus equinus,1 µg/mL
same,MIC90,Streptococcus equinus,1 µg/mL
same,MIC50,Haemophilus influenzae [16],1 µg/mL
same,MIC90,Haemophilus influenzae [16],8 µg/mL
same,MIC50,Streptococcus oralis,1 µg/mL
same,MIC90,Streptococcus oralis,1 µg/mL
same,MIC50,Enterococcus faecalis,> 128 µg/mL
same,MIC90,Enterococcus faecalis,> 128 µg/mL
same,Activity,Morganella morganii [17],76.5%
same,Activity,Staphylococcus warneri [18],76%
same,Activity,Haemophilus influenzae [19],81.8%
same,MIC50,Staphylococcus hominis [20],> 8 µg/mL
same,MIC90,Staphylococcus hominis [20],> 8 µg/mL
same,MIC50,Enterococcus faecium,> 128 µg/mL
same,MIC90,Enterococcus faecium,> 128 µg/mL
same,MIC50,[21],0.5 µg/mL
same,MIC90,[21],0.5 µg/mL
same,MIC,Moraxella catarrhalis [22],0.015 µg/mL
same,MIC50,Moraxella catarrhalis [22],0.015 µg/mL
same,MIC90,Moraxella catarrhalis [22],0.03 µg/mL
same,Activity,Staphylococcus aureus [23],18.2%
same,MIC,[24],0.25 µg/mL
same,MIC50,Streptococcus sp.,0.5 µg/mL
same,MIC90,Streptococcus sp.,0.5 µg/mL
same,Activity,Moraxella catarrhalis [25],100%
same,Activity,Streptococcus pneumoniae [26],62.5%
same,MIC50,Streptococcus pneumoniae [27],0.06 µg/mL
same,MIC90,Streptococcus pneumoniae [27],> 64 µg/mL
same,MIC50,Streptococcus agalactiae,0.5 µg/mL
same,MIC90,Streptococcus agalactiae,0.5 µg/mL
same,MIC50,Haemophilus influenzae [28],2 µg/mL
same,MIC90,Haemophilus influenzae [28],2 µg/mL
same,MIC90,[29],inactive
same,MIC50,Streptococcus pneumoniae [30],4 µg/mL
same,MIC90,Streptococcus pneumoniae [30],> 64 µg/mL
same,MIC50,Klebsiella oxytoca [31],> 8 µg/mL
same,MIC90,Klebsiella oxytoca [31],> 8 µg/mL
same,MIC50,[32],0.5 µg/mL
same,MIC90,[32],0.5 µg/mL
same,MIC50,Streptococcus salivarius,1 µg/mL
same,MIC90,Streptococcus salivarius,1 µg/mL
same,MIC50,[33],1 µg/mL
same,MIC90,[33],1 µg/mL
same,MIC50,[34],> 8 µg/mL
same,MIC90,[34],> 8 µg/mL
same,MIC50,Streptococcus pyogenes,0.06 µg/mL
same,MIC90,Streptococcus pyogenes,8 µg/mL
same,Activity,[35],39.6%
same,MIC50,Streptococcus anginosus,0.06 µg/mL
same,MIC90,Streptococcus anginosus,> 8 µg/mL
same,Activity,Neisseria meningitidis [36],100%
same,Activity,Klebsiella oxytoca [37],90%
same,MIC50,[38],1 µg/mL
same,MIC90,[38],1 µg/mL
same,Activity,Citrobacter koseri [39],99%
same,MIC50,Staphylococcus aureus [40],> 8 µg/mL
same,MIC90,Staphylococcus aureus [40],> 8 µg/mL
same,MIC50,[41],> 8 µg/mL
same,MIC90,[41],> 8 µg/mL
same,MIC50,[42],> 8 µg/mL
